What was measured:
Experiment in all cases: cells
Format in all cases: cell-based
[1] = system: MES SA DX; details: Homo sapiens, 72 h, read-out: MES SA DX IC50 nM
[2] = system: MES SA; details: Homo sapiens, 72 h, read-out: MES SA IC50 nM
[3] = system: 293T; details: Homo sapiens, HEK-293T, 72 h, read-out: 293T IC50 nM

SMILES	IC50 [1] [nM]	IC50 [2] [nM]	IC50 [3] [nM]
COc1c2c(c(O)c3c4c(c(C)cc13)C1C3OC5(C(OC)OC)OC15[C@]1(CO1)[C@]3(OC1CC(OC(C)=O)C(O)(C(C)=O)C(C)O1)O4)C(=O)[C@@H](O)C[C@@H]2O (stereo partly drawn) [Trox15]	> 1000	157	95.4
COc1c2c(c(O)c3c4c(c(C)cc13)C1C3OC5(C(OC)OC)OC15[C@]1(CO1)[C@]3(OC1CC(OC(C)=O)C(O)(C(C)=O)C(C)O1)O4)C(=O)[C@@H](O)C[C@@H]2OC1CC(C)(O)C(OC(C)=O)C(C)O1 (stereo partly drawn) [Trox16]	> 1000	2.02	2.81
COc1c2c(c(O)c3c4c(c(C)cc13)C1C3OC5(C(OC)OC)OC15[C@]1(CO1)[C@]3(OC1CC(O)C(O)(C(C)=O)C(C)O1)O4)C(=O)[C@@H](O)C[C@@H]2OC1CC(C)(O)C(O)C(C)O1 (stereo partly drawn) [Trox14]	> 1000	11.1	8.02
COc1c2c(c(O)c3c4c(c(C)cc13)C1C3OC5(C(OC)OC)OC15[C@]1(CO1)[C@]3(OC1CC(O)C(O)(C(C)=O)C(C)O1)O4)C(=O)[C@@H](O)C[C@@H]2OC1CC(C)(O)C(OC(C)=O)C(C)O1 (stereo partly drawn) [Trox13]	204	0.74	0.702
COc1c2c(c(O)c3c4c(c(C)cc13)C1C3OC5(C(OC)OC)OC15[C@]1(CO1)[C@]3(O)O4)C(=O)[C@@H](O)C[C@@H]2OC1CC(C)(O)C(OC(C)=O)C(C)O1 (stereo partly drawn) [Trox12]	> 1000	18.1	14.9

— patent US10899773B2 (priority 2014, dated 2021)
